Test system: graft related arrhythmias (sustained VT)
Assay: Treatment of graft-induced arrhythmia in pig model (myocardial infarction plus cardiomyocyte graft)
Conditions: pig P2, after VT on day 10/11; by day 13 onwards

## CCCCc1oc2ccccc2c1C(=O)c1cc(I)c(OCCN(CC)CC)c(I)c1 [amiodarone]
  effect of adjusting the dosage on rhythm: effective at achieving normal sinus rhythm

Reference: US20260097012A1, “COMPOSITIONS AND METHODS FOR TREATING GRAFT-RELATED ARRHYTHMIA” (BlueRock Therapeutics LP, priority 2022, published 2026)
